# Results reported in patent US6369212B1, “Cytochrome P450 gene highly expressed in the incompatible interaction” (Korea Kumbo Petrochemical Co., Ltd., priority 2000, dated 2002).
# Test system: PepCYP mRNA
# Assay: RNA gel blot analysis of PepCYP expression in pepper fruits drop-applied with ABA or JA
# Parameters: species or system pepper (Capsicum annuum)
# Protocol: Both ripe-red and unripe-mature-green fruits of pepper cv Nokkwang were grown and harvested under greenhouse conditions. For wound treatments, five healthy ripe and unripe fruits were deeply scratched with a knife and incubated at 100% relative humidity at 27° C. in the dark. Ten μl of ABA at 4 and 40 μM, or JA at 4 and 40 μM were drop-applied to both ripe and unripe sets of five fruits, respectively. After incubation under the conditions described above, the fruits were excised to 1 cm^2 at the drop-application site for the fungus, ABA or JA, and at the wounding site. The samples were then frozen in liquid nitrogen. Leaf, root, and stem samples were harvested from 3-week-old plants and handled as described above for fungal inoculation and wounding.
# Total RNA (10 μg/lane) from each plant tissue used in this study was separated on 1.2% denaturing agarose gels in the presence of formaldehyde. RNA gel-blotting, hybridization and washing were conducted as described by the manufacturer of the positively charged nylon membrane employed (Hybond N^+; Amersham Pharmacia Biotech). Radiolabeled probes were prepared with [α-^32P]dCTP (Amersham Pharmacia Biotech) using a random primer-labeling kit (Boehringer, Mannheim, Germany).
# Jasmonic acid (JA) is a plant hormone with roles in mechanical wounding responses (Creelman et al. 1992; Creelman and Mullet 1997). ABA is hypothesized to be a key component in wound-signaling cascade leading to the activation of a defense gene (Pena-Cortés et al. 1996; Wasternack and Partheir 1997). Thus, we further examined whether the wound-inducible PepCYP expression is inducible by ABA or JA treatments. RNA gel blot analysis was performed with total RNAs prepared from the application sites of both ripe and unripe fruits drop-applied with ABA or JA for 24 h.
smiles,measurement,setting,value
"CC/C=C\C[C@H]1C(=O)CC[C@@H]1CC(=O)O [JA, Jasmonic acid]",accumulation of PepCYP mRNA,"ripe fruit, 40 μM drop-applied, 24 h",highly accumulated
same,induction of PepCYP expression,"unripe fruit, 100, 400 and 1000 μM (data not shown)",No induction
"CC1=CC(=O)CC(C)(C)[C@@]1(O)/C=C/C(C)=C\C(=O)O [ABA, abscisic acid]",expression of PepCYP,"both ripe and unripe fruits, 4 and 40 μM drop-applied, 24 h",did not affect
